In publication PMC11942905, “Identification of a Selective Inhibitor of Human NFS1, a Cysteine Desulfurase Involved in Fe-S Cluster Assembly, via Structure-Based Virtual Screening” (International Journal of Molecular Sciences, 2025):

Experiments:
[1] = target: T1, human cystathionine-β-synthase (CBS) (Homo sapiens, UniProt P35520); test: Selectivity assay, H2S-producing activity of CBS; assay type: biochemical; settings: at 100 µM
T1 construct: made in house; host or cells: E. coli
T1 sequence (P35520 1-551): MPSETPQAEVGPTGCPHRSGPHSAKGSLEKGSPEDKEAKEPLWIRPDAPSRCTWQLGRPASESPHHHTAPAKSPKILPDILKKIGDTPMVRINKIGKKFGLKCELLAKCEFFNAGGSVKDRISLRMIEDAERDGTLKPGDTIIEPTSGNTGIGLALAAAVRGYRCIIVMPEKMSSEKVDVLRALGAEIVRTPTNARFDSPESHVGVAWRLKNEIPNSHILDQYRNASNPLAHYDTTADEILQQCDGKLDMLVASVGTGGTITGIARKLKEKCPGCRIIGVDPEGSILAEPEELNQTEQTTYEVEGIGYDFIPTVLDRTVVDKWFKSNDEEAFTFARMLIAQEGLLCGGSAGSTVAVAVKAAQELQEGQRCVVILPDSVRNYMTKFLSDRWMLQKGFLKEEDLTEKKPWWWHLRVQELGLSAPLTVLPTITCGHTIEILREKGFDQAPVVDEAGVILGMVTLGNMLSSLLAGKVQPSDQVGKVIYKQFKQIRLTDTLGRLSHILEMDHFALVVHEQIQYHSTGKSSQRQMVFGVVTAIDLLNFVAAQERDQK
Procedure: (§1) To evaluate the selectivity of Compounds 53 and 56, their effects on the activities of two other PLP-dependent enzymes, human cystathionine-β-synthase (CBS) and cystathionine-γ-lyase (CSE), were determined using a H2S-producing assay. Human CBS and CSE were expressed and purified in E. coli with a purity exceeding 90%, as confirmed by SDS-PAGE (Figures S4A and S5A). Subsequently, the H2S-producing activities of CBS and CSE were assessed in the presence of different concentrations of Compounds 53 and 56. A widely used CBS inhibitor, AOAA, and a specific CSE inhibitor, PAG, were used as positive controls (Figures S4B and S5B).
(§2) The H2S-producing activity of CBS was measured as previously described. The reaction mixture (200 μL) contained 50 mM of Hepes buffer (pH 7.4), 2 mM of homocysteine, 10 μM of PLP, 0.4 mM of lead nitrate, and 5 μg of CBS protein. It was preincubated at 37 °C for 3 min, and the reaction was initiated by the addition of 2 mM of cysteine. The reaction was monitored in a multifunctional microplate reader at 37 °C for 10 min. An extinction coefficient of 5500 M^−1 cm^−1 at 390 nm was used to calculate the lead sulfide concentration. The method used to determine CSE activity in the H2S-producing assay was identical to the CBS assay, except that 1 mM of cysteine was used as the sole substrate. […]

[2] = target: T2, cystathionine-γ-lyase (CSE) (Homo sapiens, UniProt P32929); test: Selectivity assay, H2S-producing activity of CSE; assay type: biochemical; settings: at 100 µM
T2 construct: made in house; host or cells: E. coli
T2 sequence (P32929 whole entry): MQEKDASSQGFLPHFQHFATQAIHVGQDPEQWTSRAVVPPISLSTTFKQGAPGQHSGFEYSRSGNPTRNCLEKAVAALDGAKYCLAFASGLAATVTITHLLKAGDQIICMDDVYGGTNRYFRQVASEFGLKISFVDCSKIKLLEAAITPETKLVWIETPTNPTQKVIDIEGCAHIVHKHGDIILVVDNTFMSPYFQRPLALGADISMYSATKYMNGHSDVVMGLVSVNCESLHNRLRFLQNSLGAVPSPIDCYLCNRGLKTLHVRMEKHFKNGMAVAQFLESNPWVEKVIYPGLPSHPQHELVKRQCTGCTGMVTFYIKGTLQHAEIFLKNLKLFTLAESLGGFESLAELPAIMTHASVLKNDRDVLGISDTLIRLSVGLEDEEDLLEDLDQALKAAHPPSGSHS
Procedure: as §1, §2

[3] = tested on: A549 cells; test: CCK-8 cell viability assay, A549; assay type: cell-based, human
Procedure: Human bronchial epithelial cells (BEAS-2B) and human lung adenocarcinoma A549 cells were purchased from the Institute of Biochemistry and Cell Biology, Chinese Academy of Sciences (Shanghai, China). BEAS-2B and A549 cells were cultured in DMEM supplemented with 10% (v/v) fetal bovine serum and 1% (v/v) penicillin–streptomycin solution at 37 °C in a humidified atmosphere containing 5% CO2. The half-maximal inhibitory concentration (IC50) values of the selected compounds against BEAS-2B and A549 cells were determined using the CCK-8 assay. Briefly, the cells were seeded into 96-well culture plates at a density of 5 × 10^3 cells per well. After 12 h of culture, fresh medium containing varying concentrations of the selected compounds dissolved in DMSO was added for an additional 72-hour incubation. Subsequently, 10 μL of CCK-8 solution was added to each well, followed by a further 1.5-h incubation at 37 °C. The optical density at 450 nm (OD450) for each well was measured using a microplate reader. Medium containing DMSO alone was used as the control group. Cell viability was calculated as the percentage of the OD450 of the experimental group compared to that of the control group, which was set at 100%.

[4] = tested on: succinate dehydrogenase (SDH); test: Succinate dehydrogenase activity in A549 cells; assay type: cell-based, human; settings: 50 µM
Procedure: The activity of succinate dehydrogenase (SDH) in cells was determined using an SDH activity assay kit (Solarbio, Beijing, China) according to the manufacturer’s instructions. The optical density at 600 nm (OD600) was measured using a multifunctional microplate reader in 96-well plates. One unit of SDH activity was defined as the amount of enzyme catalyzing the consumption of 1 nmol of 2,6-dichlorophenol indophenol per minute at 37 °C [43]. The activity of aconitase (ACO) was measured as previously described, with some modifications. The cells were washed three times with pre-cooled PBS and lysed with lysis buffer containing 50 mM of Tris-HCl (pH 8.0), 0.2% Triton X-100, 0.6 mM of MnCl2, 5 mM of citrate, and 1 mM of PMSF. The aconitase activity was measured by monitoring the formation of cis-aconitate from isocitrate at 240 nm in 50 mM of Tris-HCl (pH 8.0) containing 20 mM of DL-trisodium isocitrate at 37 °C. An extinction coefficient of 3600 M^−1 cm^−1 at 240 nm was used to calculate the cis-aconitate concentration. One unit of ACO activity was defined as the amount of enzyme catalyzing the generation of 1 nmol of cis-aconitate per minute at 37 °C.

For `COc1cc(/C=N/NC(=O)COc2ccc(Cl)cc2Cl)ccc1O` [Compound 53], the “inhibitory effect on CBS” value [1] was “no significant inhibitory effects”, the “inhibitory effect on CSE” value [2] was “no significant inhibitory effects” and the “anti-proliferative activity in the presence of Erastin” value ([3]; A549 cells, Compound 53 50 µM with 2.5 µM Erastin, versus without) was “increased remarkably”. The IC50 ([3]; Homo sapiens, A549, CCK-8, 72 h) was 16.3 ± 1.92 µM and the “SDH activity compared to the control group” value [4] was 81.8%.
